{
  "source": "patent US20170044597A1",
  "about": "“ASSAY METHOD AND KIT FOR NUCLEIC ACID BINDING PROTEIN” (Hiroshima University, priority 2008, published 2017)",
  "key": {"recombinant human SP1": {"target": "T1, recombinant human SP1 (Homo sapiens, UniProt P08047)", "T1 construct": "purchased Promega Corp", "T1 sequence (P08047 whole entry)": "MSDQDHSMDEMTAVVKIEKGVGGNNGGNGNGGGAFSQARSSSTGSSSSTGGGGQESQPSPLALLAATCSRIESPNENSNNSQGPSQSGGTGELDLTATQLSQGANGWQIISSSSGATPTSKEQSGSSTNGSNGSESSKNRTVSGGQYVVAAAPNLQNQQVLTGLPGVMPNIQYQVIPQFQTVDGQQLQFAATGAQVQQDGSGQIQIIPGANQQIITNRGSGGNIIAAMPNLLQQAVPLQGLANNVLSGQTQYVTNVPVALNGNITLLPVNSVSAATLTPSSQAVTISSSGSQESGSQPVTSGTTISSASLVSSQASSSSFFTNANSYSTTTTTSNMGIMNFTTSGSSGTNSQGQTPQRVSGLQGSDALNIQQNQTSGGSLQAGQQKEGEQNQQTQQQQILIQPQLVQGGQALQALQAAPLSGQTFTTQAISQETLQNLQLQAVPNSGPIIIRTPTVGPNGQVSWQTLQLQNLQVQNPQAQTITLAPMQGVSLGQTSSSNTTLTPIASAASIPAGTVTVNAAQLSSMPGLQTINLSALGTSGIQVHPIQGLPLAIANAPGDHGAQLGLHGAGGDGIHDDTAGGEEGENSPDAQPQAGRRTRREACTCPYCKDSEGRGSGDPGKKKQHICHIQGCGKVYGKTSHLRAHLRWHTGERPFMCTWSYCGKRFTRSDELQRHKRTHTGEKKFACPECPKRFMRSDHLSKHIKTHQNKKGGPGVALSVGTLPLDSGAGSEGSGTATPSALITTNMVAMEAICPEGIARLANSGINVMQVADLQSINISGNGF", "test": "Effect of mismatch introduction on suppression of strand exchange, SP1 (Example 4-1)", "assay_type": "binding", "conditions": "40 fmol SP05C/08B, 2.5 pmol SP1, 80 fmol of the added duplex or single strand, 25° C. 120 minutes (FIG. 7)", "text": "A synthetic oligonucleotide SP1-05-5C3 labeled at the 5′ terminus with Cy3 and a synthetic oligonucleotide SP1-08-3B1 labeled at the 3′ terminus with BHQ1 were mixed to prepare a duplex SP05C/08B having a single-stranded terminus under the same conditions as in Example 1. Moreover, synthetic oligonucleotides SP1-06 and SP1-07, synthetic oligonucleotides SP1-21 and SP1-22, or synthetic oligonucleotides SP1-23 and SP1-24 were mixed to prepare duplexes SP06/07, SP22/21, and SP24/23 having a single-stranded terminus under the same conditions as in Example 1. These duplexes have an SP1 binding sequence.\n40 fmol of SP05C/08B and 2.5 pmol of recombinant human SP1 (Promega Corp.) were mixed into a reaction solution (10 mM HEPES-NaOH pH 7.9, 50 mM KCl, 0.1 mM EDTA, 5 mM DTT, 10% glycerol, 0.05% IGEPAL CA-630, 15 μL) and reacted at 25° C. for 30 minutes. 80 fmol of SP06/07, SP22/21, SP24/23, SP1-07, SP1-21, or SP1-23 was added thereto, and […] of the resulting mixture was then reacted at 25° C. for 120 minutes. The fluorescence value of Cy3 was measured using a fluorescence plate reader Ultra (Tecan Group Ltd.)."}, "SP1/oligonucleotide": {"system": "SP1/oligonucleotide", "test": "Negative control of the screening system: strand exchange of a nucleic acid set that does not bind to NF-κB (Example 5)", "conditions": "0 to 5 nmol aurothioglucose, duplexes 05C/08 and 06B/07 as negative control, same reaction (FIG. 9)", "text": "A synthetic oligonucleotide SP1-08 and a synthetic oligonucleotide SP1-05-5C3 labeled at the 5′ terminus with Cy3, or a synthetic oligonucleotide SP1-07 and a synthetic oligonucleotide SP1-06-3B1 labeled at the 3′ terminus with BHQ1 were mixed to prepare duplexes 05C/08 and 06B/07 having a single-stranded terminus under the same conditions as in Example 1. The duplexes 05C/08 and 06B/07 have an SP1 binding sequence.\n(§1) To a mixed solution of 31F/42 and 05C/08 (50 fmol each), 0 to 5 nmol of aurothioglucose and 0.5 pmol of recombinant human NFκB p50 (Promega Corp.) were added, and further a mixed solution of 32D/41 and 06B/07 (200 fmol each) was added. The resulting solution was mixed and reacted at 25° C. for 30 minutes. […] The fluorescence values of fluorescein and Cy3 were measured using a fluorescence plate reader Ultra (Tecan Group Ltd.). The fluorescein was excited at 485 nm, and its fluorescence was measured at 535 nm. The Cy3 was excited at 535 nm and its fluorescence was measured at 595 nm."}, "[1]": {"target": "T2, recombinant human NFκB p50 (Homo sapiens, UniProt P19838)", "T2 construct": "recombinant human NFκB p50 (Promega Corp.); purchased Promega Corp", "T2 sequence (P19838 1-433 limits assumed)": "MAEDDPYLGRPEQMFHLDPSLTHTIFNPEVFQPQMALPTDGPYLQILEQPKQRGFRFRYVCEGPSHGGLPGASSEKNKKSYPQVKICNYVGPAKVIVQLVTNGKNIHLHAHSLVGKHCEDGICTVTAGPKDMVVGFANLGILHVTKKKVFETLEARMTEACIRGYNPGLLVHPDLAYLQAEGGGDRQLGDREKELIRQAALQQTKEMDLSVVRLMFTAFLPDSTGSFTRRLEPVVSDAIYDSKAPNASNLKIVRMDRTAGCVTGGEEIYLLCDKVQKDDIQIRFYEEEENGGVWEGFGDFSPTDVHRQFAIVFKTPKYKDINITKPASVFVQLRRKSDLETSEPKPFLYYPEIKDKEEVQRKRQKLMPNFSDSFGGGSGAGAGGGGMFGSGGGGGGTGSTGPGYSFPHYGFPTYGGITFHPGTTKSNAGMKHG", "test": "Detection of NF-κB (p50) inhibitory effect of aurothioglucose (Example 5)", "assay_type": "binding", "conditions": "0 to 5 nmol aurothioglucose, 0.5 pmol NFκB p50, duplexes 31F/42 and 32D/41, 25° C. 30 minutes, relative to absence of aurothioglucose (FIG. 9)", "text": "A synthetic oligonucleotide NFkB-42 and a synthetic oligonucleotide NFkB-31-5F labeled at the 5′ terminus with fluorescein, or a synthetic oligonucleotide NFkB-41 and a synthetic oligonucleotide NFkB-32-3D labeled at the 3′ terminus with DABCYL were mixed to prepare duplexes 31F/42 and 32D/41 having a single-stranded terminus under the same conditions as in Example 1. The duplexes 31F/42 and 32D/41 have an NF-κB binding sequence.\nas §1"}, "NF-κB": {"system": "NF-κB", "conditions": "Yang et al. FEBS letters 1995, 361, 89-96; cited from earlier work"}},
  "data": [
    {"compound": "SP1-07: synthetic oligonucleotide 5′ ATTCGATCGGGGCGGGGCGACGAGC AGGCTACTCTCTGACCG 3′ (SEQ ID NO: 31) (DNA ATTCGATCGGGGCGGGGCGACGAGCAGGCTACTCTCTGACCG; DNA, backbone and methylation of C not given here)", "values": [
      {"measurement": "effect of addition of SP1 on increase in fluorescence value (Cy3) caused by strand exchange", "setting": "recombinant human SP1", "result": "suppressed increase in fluorescence value"}
    ]},
    {"compound": "OC[C@H]1O[C@H]([S-])[C@H](O)[C@@H](O)[C@@H]1O.[Au+]", "note": "[aurothioglucose, Aurothioglucose]", "values": [
      {"measurement": "relative fluorescence value of the SP1/oligonucleotide", "setting": "SP1/oligonucleotide", "result": "hardly influenced"},
      {"measurement": "relative fluorescence value of the NF-κB/oligonucleotide complex", "setting": "[1]", "result": "decreased depending on the concentration of aurothioglucose"},
      {"measurement": "inhibition of NF-κB", "setting": "NF-κB", "result": "known to inhibit NF-κB"}
    ]}
  ]
}
